Measurements reported in US4148919A, “7-Amino-6,7-dihydro [5H]benzocycloheptene derivatives” (Roussel Uclaf, priority 1975, dated 1979).

Assays:
serotonine (5HT) uptake [1] = test: Inhibition of Serotonine uptake in vitro (impure brain synaptosomes); type: biochemical; details: female rat brain synaptosomes, 37° C. 5 minutes, 14C-5HT 10^-7 M
Protocol: (§1) The inhibition of serotonine (5HT) uptake was measured in impure synaptosomes prepared from the entire brain of a female rat 19 to 21 days old using the technique of Kannengiesser et al. [Biochemical Pharmacology,Vol. 22, (1973) p. 73].

mice [2] = test: Potentiation of effects of L-dopa in iproniazide-pretreated mice; type: in vivo; details: male mice, intraperitoneal, iproniazide 75 mg/kg 18 hours before, L-dopa 100 mg/kg i.p. one hour after product; 60 min
Protocol: The administration of L-dopa to mice pretreated 18 hours previously with iproniazide produced certain number of symptoms; muscular hypertonicity, hyperactivity, agitation, crying, aggressiveness, salivation and exophthalmy. The intensity of these effects is potentiated by administration of an antidepressant one hour before the administration of L-dopa. Male mices received intraperitoneally 75 mg/kg of iproniazide 18 hours before the start of the test and the tested product was intraperitoneally administered in aqueous solution in increasing doses. One hour later, L-dopa was intraperitoneally administered at a dose of 100 mg/kg and the different symptoms were observed 15 and 30 minutes later. They were evaluated on a scale of 0 to 3 for each animal and the totals for each dose were determined. The ED50 dose which potentiates by 50% the L-dopa effects was determined to be about 20 mg/kg for the product of Example 1.

mice [3] = test: Potentialization of effects of monoamine oxidase inhibitor (nialamide hyperactivity, actimetry); type: in vivo; set-up: key: ++: expressed in increasing number of + signs for a determined dose in mg/kg; +++: expressed in increasing number of + signs for a determined dose in mg/kg; details: 30 minutes after nialamide 100 mg/kg i.p., actimetry for 6 hours
Protocol: The administration of a monoamine oxidase inhibitor to mice induces a hyperactive movement of the animals which is able to be potentialized by an antidepressant. Using the procedure of Carlsson et al. [Brain Research, Vol. 12 (1969), p. 456], a dose of 100 mg/kg of nialamide was intraperitoneally administered to mice 30 minutes before the intraperitoneal administration of the tested product and the values of actimetric measurements were recorded every 30 minutes for 6 hours. Potentiation of the effects of nialamide for the tested product was expressed in increasing number of + signs for a determined dose in mg/kg.

mice [4] = test: Acute toxicity; type: in vivo; details: intraperitoneal administration, determined 48 hours later
Protocol: The DL50 dose which kills 50% of mice after intraperitoneal administration of the tested compound was determined 48 hours later and the DL50 for the compound of Example 1 was about 75 mg/kg.

serotonine (5HT) uptake [5] = test: Inhibition of Serotonine uptake in vivo (synaptosomes from treated rats); set-up: species or system rat; key: the activity was expressed in increasing number of + signs; details: 20 mg/kg intraperitoneal, female rats, brain removed after 30 minutes
Protocol: as §1
The tested products were intraperitoneally administered to groups of female rats 19 to 21 days old at doses of 5 to 20 mg/kg. After 30 minutes, the brain was removed and synaptosomes were prepared and placed in an incubator in the presence of 14 C-5HT as indicated in the previous test.

7-amino-6,7-dihydro [5H] benzocycloheptene-hydrochloride [Example 1]
IC50 (serotonine (5HT) uptake [1]): ~2.4 µM | ED50 dose which potentiates by 50% the L-dopa effects (mice [2]): about 20 mg/kg | Potentiation of the effects of nialamide (mice [3]; 5 mg/kg intraperitoneal): ++ | Potentiation of the effects of nialamide (mice [3]; 20 mg/kg intraperitoneal): +++ | DL50 dose which kills 50% of mice (mice [4]): about 75 mg/kg | Relative power to inhibit the uptake of 14C-5HT (serotonine (5HT) uptake [5]): +
